Laboratory results taken from ChEMBL document CHEMBL1129307, “5-(4-Chlorophenyl)-4-methyl-3-(1-(2-phenylethyl)piperidin-4-yl)isoxazole: a potent, selective antagonist at human cloned dopamine D4 receptors” (J Med Chem, 1996).

Columns and labels:
D(4) dopamine receptor = target: T1, D(4) dopamine receptor (Homo sapiens, UniProt P21917); assay: biochemical
T1 sequence (P21917 whole entry): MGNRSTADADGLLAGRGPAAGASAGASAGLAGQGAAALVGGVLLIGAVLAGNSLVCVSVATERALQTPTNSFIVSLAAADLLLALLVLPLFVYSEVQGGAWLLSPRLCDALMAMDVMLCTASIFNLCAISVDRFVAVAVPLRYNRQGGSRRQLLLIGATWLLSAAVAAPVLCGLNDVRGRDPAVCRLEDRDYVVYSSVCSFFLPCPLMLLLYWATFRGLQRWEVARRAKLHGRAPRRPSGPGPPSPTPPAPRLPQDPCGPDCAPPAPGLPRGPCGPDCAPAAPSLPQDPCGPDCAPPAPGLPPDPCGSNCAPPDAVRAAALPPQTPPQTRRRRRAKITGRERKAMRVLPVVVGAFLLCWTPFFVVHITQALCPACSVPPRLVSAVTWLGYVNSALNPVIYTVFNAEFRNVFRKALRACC
Description: Displacement of [3H]spiperone from human Dopamine receptor D4 expressed in HEK293 cells

D(3) dopamine receptor = D(3) dopamine receptor (Homo sapiens, UniProt P35462); assay: biochemical
D(3) dopamine receptor, sequence (P35462 whole entry): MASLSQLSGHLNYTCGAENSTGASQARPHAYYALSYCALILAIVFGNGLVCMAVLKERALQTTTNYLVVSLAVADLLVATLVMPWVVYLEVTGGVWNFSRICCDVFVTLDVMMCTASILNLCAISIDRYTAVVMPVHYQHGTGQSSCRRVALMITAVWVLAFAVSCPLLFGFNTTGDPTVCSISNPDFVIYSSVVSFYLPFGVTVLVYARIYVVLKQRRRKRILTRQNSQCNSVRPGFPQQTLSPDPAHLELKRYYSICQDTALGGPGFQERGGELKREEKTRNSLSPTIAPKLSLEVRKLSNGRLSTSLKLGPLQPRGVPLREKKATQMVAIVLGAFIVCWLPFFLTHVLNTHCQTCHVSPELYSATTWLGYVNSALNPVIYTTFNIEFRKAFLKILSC
Description: Displacement of [3H]spiperone from human Dopamine receptor D3 expressed in CHO cells

| SMILES | Ki (D(4) dopamine receptor) | Ki (D(3) dopamine receptor) |
| --- | --- | --- |
| Clc1ccc(CN2CCC(c3cc(-c4ccc(Cl)cc4)[nH]n3)CC2)cc1 | 61 nM | 820 nM |
| Clc1ccc(CN2CCC(c3cc(-c4ccc(Cl)cc4)on3)CC2)cc1 | 44 nM | 430 nM |
| Clc1ccc(-c2cc(C3CCN(CCc4ccccc4)CC3)[nH]n2)cc1 | 5.5 nM | > 4000 nM |
| Clc1ccc(CN2CCC(c3cc(-c4ccc(Cl)cc4)no3)CC2)cc1 | 3.6 nM | 81 nM |

Stronger by Ki (D(4) dopamine receptor), values ahead:

| Ki (D(4) dopamine receptor) | Ki (D(3) dopamine receptor) | SMILES |
| --- | --- | --- |
| 2.5 nM | 480 nM | Cc1c(-c2ccc(Cl)cc2)noc1C1CCN(CCc2ccccc2)CC1 |
| 1.2 nM | 1200 nM | Cc1c(C2CCN(CCc3ccccc3)CC2)n[nH]c1-c1ccc(Cl)cc1 |
